Series [1] can be described thus: Mouse pharmacokinetics i.v./p.o. It is filed as in vivo. To be noted: plasma, male C57Bl6 mice; for clearance / Vd: iv, i.v. 0.5-1.0 mg/kg; for Vd: read-out: V ss; for bioavailability: po, p.o. 300 (A), 1.0 (B), 2.0 (C) mg/kg, read-out: Oral % F. The procedure:
(§1) Detailed description in Supplementary materials.
Pharmacokinetics and evaluation of compound exposures: Male C57/BL mice were obtained from Si Bei Fu and weighed approximately 20-30 grams (7-9 weeks) at the start of the pharmacokinetic study. Animals had free access to food and water during the course of the experiment. Dose formulations were prepared on the study day and were stirred at room temperature for at least 15 minutes prior dosing and during the administration event. Cmpd A, B and C were dosed at 0.5-1 mg/kg i.v. and 1-300 mg/kg p.o. The dorsal metatarsal vein was used for sampling and typically 0.02 mL blood was withdrawn. Blood was taken at 2, 5, 15, 45 min, 2, 4, 8, 24 hours post the i.v. dose and at 15, 30 min, 1, 2, 4, 8, 24 hours post the p.o. dose. Blood of each sample was transferred into plastic micro centrifuge tubes containing 2 μL of 1000 IU Heparin-Na anticoagulant. These tubes were then inverted several times and placed on wet ice prior to centrifugation at 10,000 rpm for 2 minutes at 4°C in order to collect plasma. Plasma samples were stored at -75±15°C prior analysis. Compound concentrations were analyzed using a LC-MS/MS method (see below).
Effective T1/2 equals Ln2 x Vss/CL.

Series [2] relates to C3H/HeJ mouse model of AA. The series can be described thus: Taqman gene expression in mouse skin. It is filed as in vivo. Particulars: Mean±SEM. The procedure: RNA was prepared according to a standard phenol‐chloroform total RNA extraction method where skin samples were homogenized in QIAzol® Lysis Reagent (QIAGEN Sciences, Maryland 20847, USA), added chloroform, vortexed and centrifuged for phase separation. The RNA containing phase was ethanol precipitated and purified on an Applied Biosystems 6100 Nucleic Acid Prep Station. RNA integrity was measured on the Fragment Analyzer platform (AATI, IA, USA) using standard sensitivity RNA analysis kit.
cDNA was synthesized from mouse skin RNA using the High Capacity cDNA Reverse Transcription Kit from Life Technologies. Gene expression was performed on the QuantStudio™ 7 Flex Real‐Time PCR System (Applied Biosystems, Foster City, CA, USA) using custom made TaqMan® Array Micro Fluidic Cards. Results were analyzed with the QuantStudio™ 7 Flex Real‐Time PCR System software. Detailed description in Supplementary materials.
RNA extraction: Frozen 20 mg skin biopsies were transferred to 2 mL eppendorf tubes placed on dry ice, added 5 stainless steel beads of 3 mm ø and 750 μL cold QIAzol® Lysis Reagent (QIAGEN Sciences, Maryland 20847, USA). The samples were mounted on a Mixer Mill Tissue Lyser (Retsch GmbH, Haan, Germany) and homogenized for 2 x 5 minutes at 30 Hz, then centrifuged for 1 minute at 6000g, added 150 μL CHCl3, vigorously shaken for 15 seconds and incubated for 3 minutes. After 15 minutes centrifugation at 6000g the aqueous RNA containing phase was transferred to a 96 deep well plate and mixed with an equal volume of 70 % Ethanol. The RNA-Ethanol precipitate was purified and DNase treated on a 6100 Nucleic Acid Prep Station (Applied Biosystems, Foster City, CA, USA). Total RNA was eluted in 100 μL Elution Buffer (Applied Biosystems, Foster City, CA, USA) and the concentrations were measured on the NanoDrop ND-1000 Spectrophotometer (Thermo Fischer Scientific, Wilmington, DE, USA) at 260 nm.
cDNA synthesis: cDNA synthesis was performed using the High Capacity cDNA Reverse Transcription Kit from Life Technologies (Applied Biosystems, Foster City, CA, USA) according to the manufacturer´s instructions. The cDNA samples were diluted with RNase free water to 100 ng/µL, in a later (experiment) to 200 ng/µL.
The gene expression results are shown as log2 Fold Change. With the calibrator group close to zero, up- or down regulation of the target genes are visualized as positive or negative values, making it easier to assess the size of, in particular, the down regulations.

Series [3] is described as follows: Plasma protein binding by equilibrium dialysis. It is filed as in vitro ADME. To be noted: mouse plasma.
Source text: as §1
(In equilibrium dialysis free small molecules cross a membrane that holds back macromolecules.)

For series [4], the target named is JAK2 (Homo sapiens, UniProt O60674). Briefly: JAK2 kinase inhibition, Calliper assay. Type of series: biochemical. Particulars: physiological ATP concentration of 5 mM.
For series [5], the system named is IL‐13, STAT6‐Luc. Briefly: IL-13-induced JAK-STAT6-luciferase assay in U937 monocytes. To be noted: Homo sapiens, U-937, interleukin at EC80. Type of series: cell-based.
A short description of series [6]: Plasma and skin exposure in treated AA mice. Particulars: AA mice.
Series [7] is described as follows: Unbound fraction in tissue from rearranged Gillette equation. Type of series: in vitro ADME, mouse. Particulars: for f u, tissue: mouse, from rearranged Gillette equation, V blood 0.07 L/kg, V tissue 0.6 L/kg.
Source text: as §1

A short description of series [8]: Solubility in phosphate buffer. Type of series: physicochemical. To be noted: pH 7.4, aqueous buffer. The source says:
TABLE 1 In vitro potency and selectivity of JAK inhibitors | column: Solubility (μM) ^c

Where [9] appears, read: topical cream application (local).

The values that follow come from article PMC10233092, “Selective Janus kinase 1 inhibition resolves inflammation and restores hair growth offering a viable treatment option for alopecia areata” (Skin Health and Disease, 2023).

In brackets after ≈: the same amount, converted by molar mass. Some results are limits rather than exact numbers.

JAK2, sequence (O60674 whole entry, species assumed): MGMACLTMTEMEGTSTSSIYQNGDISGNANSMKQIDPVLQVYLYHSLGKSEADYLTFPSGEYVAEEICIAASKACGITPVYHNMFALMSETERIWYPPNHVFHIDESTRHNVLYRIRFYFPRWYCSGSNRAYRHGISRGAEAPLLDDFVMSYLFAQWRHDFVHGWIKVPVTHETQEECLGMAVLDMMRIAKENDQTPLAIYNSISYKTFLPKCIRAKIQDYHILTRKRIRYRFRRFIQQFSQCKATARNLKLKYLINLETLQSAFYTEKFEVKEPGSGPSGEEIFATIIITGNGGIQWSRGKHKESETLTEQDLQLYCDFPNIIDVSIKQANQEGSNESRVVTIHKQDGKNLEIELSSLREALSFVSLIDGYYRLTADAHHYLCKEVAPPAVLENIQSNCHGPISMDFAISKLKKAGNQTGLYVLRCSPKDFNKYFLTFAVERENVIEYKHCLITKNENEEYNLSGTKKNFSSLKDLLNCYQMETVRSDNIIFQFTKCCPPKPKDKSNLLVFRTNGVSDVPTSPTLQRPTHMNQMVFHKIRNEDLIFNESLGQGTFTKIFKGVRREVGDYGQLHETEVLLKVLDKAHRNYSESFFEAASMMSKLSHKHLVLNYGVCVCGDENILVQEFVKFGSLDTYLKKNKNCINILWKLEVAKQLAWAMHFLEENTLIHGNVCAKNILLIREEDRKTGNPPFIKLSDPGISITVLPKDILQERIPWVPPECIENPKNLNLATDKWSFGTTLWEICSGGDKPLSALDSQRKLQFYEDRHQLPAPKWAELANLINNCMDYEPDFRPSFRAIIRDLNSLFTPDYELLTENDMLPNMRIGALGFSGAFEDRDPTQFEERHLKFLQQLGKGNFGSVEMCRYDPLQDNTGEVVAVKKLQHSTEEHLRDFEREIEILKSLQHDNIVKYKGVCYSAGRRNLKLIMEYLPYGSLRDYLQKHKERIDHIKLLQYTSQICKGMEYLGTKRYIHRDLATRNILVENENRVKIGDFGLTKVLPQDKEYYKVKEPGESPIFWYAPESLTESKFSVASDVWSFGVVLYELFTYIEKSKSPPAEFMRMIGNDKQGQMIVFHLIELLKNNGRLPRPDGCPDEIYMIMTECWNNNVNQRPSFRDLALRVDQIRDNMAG

By IC50 is commonly meant the concentration that inhibits the measured activity by half. Low readings indicate inhibition by little substance, high ones a need for much substance. As a reminder, the solubility is the dissolved amount per volume that the medium holds. High values mean a readily soluble substance, low ones a poorly soluble substance. Consider `Cc1cnc(Nc2cccnc2F)nc1-c1c[nH]c2c(NC(=O)[C@@H](C)N3CCN(C)CC3)cccc12` [Cmpd A], for which, in series [1], the clearance worked out at 1.92 L/h/kg, the Vd was 9.1 L/kg and the bioavailability is 100%. In addition, in series [2] (8w off Tx), the “CD8a expression in skin, fold change (log2) from AA” value is reported as -0.32 ± 0.45 (0.97, n=6) log2 fold change; the “CXCL9 expression in skin, fold change (log2) from AA” value was -0.33 ± 0.73 (0.96, n=6) log2 fold change; the “CXCL10 expression in skin, fold change (log2) from AA” value was -0.32 ± 0.61 (0.97, n=6) log2 fold change; the “CXCL11 expression in skin, fold change (log2) from AA” value is given as 0.43 ± 0.73 (0.93, n=6) log2 fold change. Also, in series [2] (8w off Tx), the “GZMB expression in skin, fold change (log2) from AA” value was -0.81 ± 0.73 (0.099, n=3) log2 fold change; the “ICOS expression in skin, fold change (log2) from AA” value is reported as -0.05 ± 0.09 (0.34, n=2) log2 fold change; the “Krt32 expression in skin, fold change (log2) from AA” value was -1.44 ± 0.98 (0.062, n=6) log2 fold change; the “MX1 expression in skin, fold change (log2) from AA” value is -0.37 ± 0.41 (0.67, n=6) log2 fold change. For the same molecule, the “STAT1 expression in skin, fold change (log2) from AA” value in series [2] (8w off Tx) is -0.30 ± 0.28 (0.67, n=6) log2 fold change. For the same molecule, in series [2] (Systemic JAKi (oral, 4 weeks)), the “CD8a expression in skin, fold change (log2) from AA” value is -2.56 ± 0.24 (<0.001, n=6) log2 fold change; the “CXCL9 expression in skin, fold change (log2) from AA” value was -3.83 ± 0.47 (<0.001, n=6) log2 fold change; the “CXCL10 expression in skin, fold change (log2) from AA” value is reported as -3.28 ± 0.42 (<0.001, n=5) log2 fold change; the “CXCL11 expression in skin, fold change (log2) from AA” value is -4.32 ± 0.36 (<0.001, n=5) log2 fold change. Besides, in series [2] (Systemic JAKi (oral, 4 weeks)), the “ICOS expression in skin, fold change (log2) from AA” value is listed as -1.05 ± 0.12 (0.0083, n=4) log2 fold change; the “Krt32 expression in skin, fold change (log2) from AA” value is -3.16 ± 0.13 (<0.001, n=6) log2 fold change; the “MX1 expression in skin, fold change (log2) from AA” value is listed as -3.71 ± 0.21 (<0.001, n=6) log2 fold change; the “STAT1 expression in skin, fold change (log2) from AA” value is listed as -2.29 ± 0.25 (<0.001, n=6) log2 fold change. The “f u, plasma” value in series [3] is listed as 0.038. Half-maximal inhibition in series [4] (IC50) required 18 µM. In series [5], this molecule registered an IC50 of 0.12 µM. Besides, in series [6] (oral daily servings (systemic)), the “estimated average free exposure in plasma over IC50” value is 1.2 fold IC50 and the “estimated average free exposure in skin over IC50” value is 0.1 fold IC50. In series [7], the “f u, tissue” value is on record as 0.003. In series [7] (skin value estimated from the Gillette equation), the “unbound fraction in plasma compared to skin” value is reported as about 10 fold. The solubility in series [8] was over 337 µM.
With `Cc1cnc(Nc2cc(N3C[C@@H]4C[C@H]3CN4C)cnc2F)nc1N[C@H](C)[C@H](C)CO` [Cmpd B, (2S,3R)-3-{[2-({2-fluoro-5-[(1S,4S)-5-methyl-2,5-diazabicyclo[2.2.1]heptan-2-yl]pyridin-3-yl}amino)-5-methylpyrimidin-4-yl]amino}-2-methylbutan-1-ol], in series [1], the clearance is 2.28 L/h/kg, the Vd was 8.4 L/kg and the bioavailability amounted to 16%. Also, in series [2] (Local JAK1i (treated side)), the “CD8a expression in skin, fold change (log2) from AA” value is 1.06 ± 0.63 (0.245, n=6) log2 fold change; the “CXCL9 expression in skin, fold change (log2) from AA” value is 0.60 ± 0.50 (0.69, n=6) log2 fold change; the “CXCL10 expression in skin, fold change (log2) from AA” value is given as 0.23 ± 0.49 (0.99, n=6) log2 fold change; the “CXCL11 expression in skin, fold change (log2) from AA” value is on record as 0.06 ± 0.63 (0.99, n=6) log2 fold change. Also, in series [2] (Local JAK1i (treated side)), the “GZMB expression in skin, fold change (log2) from AA” value is 0.93 ± 0.35 (0.45, n=5) log2 fold change; the “ICOS expression in skin, fold change (log2) from AA” value was 1.33 ± 0.18 (<0.001, n=4) log2 fold change; the “Krt32 expression in skin, fold change (log2) from AA” value is on record as -0.81 ± 0.70 (0.49, n=6) log2 fold change; the “MX1 expression in skin, fold change (log2) from AA” value was 0.03 ± 0.38 (0.99, n=6) log2 fold change. Further, the “STAT1 expression in skin, fold change (log2) from AA” value in series [2] (Local JAK1i (treated side)) is 1.09 ± 0.29 (<0.001, n=6) log2 fold change. Further, in series [2] (Local JAK1i (untreated side)), the “CD8a expression in skin, fold change (log2) from AA” value is 1.02 ± 0.71 (0.80, n=6) log2 fold change; the “CXCL9 expression in skin, fold change (log2) from AA” value was 0.82 ± 0.65 (0.41, n=6) log2 fold change; the “CXCL10 expression in skin, fold change (log2) from AA” value is -0.03 ± 0.74 (0.99, n=6) log2 fold change; the “CXCL11 expression in skin, fold change (log2) from AA” value is 0.08 ± 0.76 (0.99, n=6) log2 fold change. Further, in series [2] (Local JAK1i (untreated side)), the “GZMB expression in skin, fold change (log2) from AA” value is given as 0.77 ± 0.37 (0.64, n=5) log2 fold change; the “ICOS expression in skin, fold change (log2) from AA” value is recorded as 1.06 ± 0.29 (0.0018, n=5) log2 fold change; the “Krt32 expression in skin, fold change (log2) from AA” value is reported as -0.64 ± 0.71 (0.70, n=6) log2 fold change; the “MX1 expression in skin, fold change (log2) from AA” value was 0.02 ± 0.41 (0.99, n=6) log2 fold change. Besides, the “STAT1 expression in skin, fold change (log2) from AA” value in series [2] (Local JAK1i (untreated side)) is recorded as 1.07 ± 0.29 (<0.001, n=6) log2 fold change. Further, the “f u, plasma” value in series [3] amounted to 0.74. For the same molecule, in series [4], the 50% inhibitory concentration (IC50) was over 30 µM. The same molecule came in with an IC50 in series [5] of 0.1 µM. In addition, in series [6] (setting [9]), the “estimated average free exposure in plasma over IC50” value is reported as 0.02 fold IC50 and the “estimated average free exposure in skin over IC50” value is given as 1.9 fold IC50. Also, the “f u, tissue” value in series [7] is on record as 0.063. In series [8], this molecule returned a solubility of over 955 µM.
For the molecule `COCC(C(=O)Nc1cccc2c(-c3nc(Nc4cccc(S(C)(=O)=O)c4F)ncc3F)c[nH]c12)N1CCN(C)CC1` (centres unmarked) [Cmpd C], in series [1], the clearance worked out at 1.56 L/h/kg, the Vd was 6.9 L/kg and the bioavailability is 86%. Moreover, the “f u, plasma” value in series [3] is listed as 0.11. Moreover, the “f u, tissue” value in series [7] amounted to 0.011. The same molecule returned a solubility in series [8] of 6.6 µM (≈ 3.96 µg/mL).
